From patent US7323490B2, “Pyrrole compounds and uses thereof” (Ambit Biosciences Corporation, priority 2003, dated 2008)

Assays:
focal cerebral ischemia = assay: Rat MCAO model, time schedules of administration (Example 11); assay type: in vivo; conditions: 25 hrs post, 48 h
Procedure: The compounds were tested on a standardized rodent focal cerebral ischemia model produced by permanent occlusion of the right middle cerebral artery (MCA) plus one hour of tandem carotid artery occlusion according to Chen et al. A total of 96 animals underwent MCAo using subcutaneous administration of all test articles, according to the experimental design illustrated in Table 5 below. Three compounds at one predetermined dose were compared to vehicle and assigned to three different time schedules of administration relative to the time of MCAo. […] The time schedules for administration of all treated groups were divided as follows:
A second group of eighteen animals were used to test compound A (782236) using the treatment schedule, shown (a, b & c) above via intravenous (I.V.) administration. Groups of n=5 animals per treatment time period with compound A and 3 animals per control group via tail vein.
Animal Preparation and Middle Cerebral Artery Occlusion. Male, adult, Sprague-Dawley rats (Charles River), weighing 300-400 grams, were used for the study. All animals were acclimated at least for five days before entering the study. Animals were housed in a standard animal facility and fed with commercial rodent chow ad libitum. All animals were anesthetized via intramuscular injection (4 mL/kg) of “cocktail” containing ketamine (25 mg/mL), xylazine (1.3 mg/mL) and acepromazine (0.33 mg/mL). Both carotid arteries were separated with great caution to minimize the vagal nerve stimulation. The right proximal MCA trunk was exposed through a subtemporal craniectomy without transecting the facial nerve. […] Immediately following MCA occlusion, both of the common carotid arteries were occluded for 1 hour using surgical aneurysm micro-clips (ROBOZ INC). Animals were put into temperature regulated recovery chamber for 1 hour before the clips were removed from the common carotid arteries. Body temperature was maintained at 37±0.5° C. during the surgery using a heating blanket connected to a temperature controller.
Experimental Groups and Compound Administration. A total of 96 animals underwent MCAo using subcutaneous administration of all test articles, according to the experimental design illustrated in Table 5 below. Three compounds at one predetermined dose were compared to vehicle and assigned to three different time schedules of administration relative to the time of MCAo. […] The time schedules for administration of all treated groups were divided as follows:
A second group of eighteen animals were used to test compound A (782236) using the treatment schedule, shown (a, b & c) above via I.V. administration. Groups of n=5 animals per treatment time period with compound A and 3 animals per control group via tail vein.
Infarct Measurement. Forty-eight hours following MCAo, animals were euthanized with inhalation of CO2. Brains were removed and chilled in ice saline for 10 min. The brains were put in a metal rodent brain slicer. Each rat brain was cut coronally into 7 sections, with each section being 2 mm thick. The brain sections were immersed in 2% TTC solution for 30 min at 37° C. The areas of cerebral infarcts were determined on seven slices, using a computer-interfaced imaging system, Image-Pro® Plus, Version 4.4 for Windows (Media Cybernetics, MD). Infarct areas were then summed among slices and multiplied by slice thickness to give the total infarct volume.
Statistics. All data are expressed as mean±SEM. In Section A, infarct volume was analyzed using Student t Test. A p value of ≦0.05 was considered a statistically significant difference. All statistical analyses were performed with the software package JMP version 4.0 (SAS Institute Inc., Cary, N.C.).

[1] = test system: focal cerebral infarcts (MCAo); assay: Hindlimb placing test, Tamura MCAo model; assay type: in vivo, rat; conditions: AVG, 0=normal, 6=maximally impaired
Text: Surgical Preparation. Middle Cerebral Artery Occlusion (MCAo), Tamura Model. Focal cerebral infarcts were made by permanent occlusion of the proximal right middle cerebral artery using a modification of the method of Tamura et al. […] The temporalis muscle was bisected and reflected through an incision made midway between the eye and the eardrum canal. The proximal MCA was exposed through a subtemporal craniectomy without removing the zygomatic arch and without transecting the facial nerve. […] Animals were euthanatized at various time periods after MCA occlusion and the brains are removed for histological analysis. Behavioral Analysis. Two behavioral tests were performed, the limb placing and body swing test. […] Limb Placing. The limb placing tests were divided into both forelimb and hindlimb tests. For the forelimb-placing test, the examiner held the rat close to a tabletop and scored the rat's ability to place the forelimb on the tabletop in response to whisker, visual, tactile, or proprioceptive stimulation. Similarly, for the hindlimb placing test, the examiner assessed the rat's ability to place the hindlimb on the tabletop in response to tactile and proprioceptive stimulation. […] Typically, there was a slow and steady recovery of limb placing behavior during the first month after stroke. Experimental Groups and Compound Administration. A total of 80 animals underwent MCAo using subcutaneous administration of all test articles, according to the experimental design illustrated in Table 16. […] All animals were treated with the compound(s)/vehicle(s) as a blinded random investigation. The dose and route of administration is given below in Table 16.

[2] = test system: focal cerebral infarcts (MCAo); assay: Body swing test, Tamura MCAo model; assay type: in vivo, rat; design: unit not given here; conditions: AVG
Text: Surgical Preparation. Middle Cerebral Artery Occlusion (MCAo), Tamura Model. Focal cerebral infarcts were made by permanent occlusion of the proximal right middle cerebral artery using a modification of the method of Tamura et al. […] The temporalis muscle was bisected and reflected through an incision made midway between the eye and the eardrum canal. The proximal MCA was exposed through a subtemporal craniectomy without removing the zygomatic arch and without transecting the facial nerve. […] Animals were euthanatized at various time periods after MCA occlusion and the brains are removed for histological analysis. Behavioral Analysis. Two behavioral tests were performed, the limb placing and body swing test. […] Body Swing Test. The animal was held approximately 1 inch from the base of its tail. It was then elevated to an inch above a surface of a table. The animal was held in the vertical axis, defined as no more than 10° to either the left or the right side. A swing was recorded whenever the animal moves its head out of the vertical axis to either side. Before attempting another swing, the animal must return to the vertical position for the next swing to be counted. Thirty total swings were counted. A normal animal typically has an equal number of swings to either side. Following focal stroke, the animal tends to swing to the contralateral side. There is a slow spontaneous recovery of body swing during the first month after stroke. Experimental Groups and Compound Administration. A total of 80 animals underwent MCAo using subcutaneous administration of all test articles, according to the experimental design illustrated in Table 16. […] All animals were treated with the compound(s)/vehicle(s) as a blinded random investigation. The dose and route of administration is given below in Table 16.

[3] = SC, schedule a: 2 hrs pre, 3 hrs post, doses per Table 5 (782236 1/0.5/0.5, others 10/5/5 mg/kg)
[4] = SC, schedule b: 1 hr post, 3 hrs post, doses per Table 5
[5] = SC, schedule c: 3 hrs post, 6 hrs post, doses per Table 5
[6] = administered six hours after MCAo
[7] = administered three hours after MCAo

| SMILES | infarction volume (focal cerebral ischemia; [3]) | infarction volume (focal cerebral ischemia; [4]) | infarction volume (focal cerebral ischemia; [5]) | Hindlimb placing test score, D0 [1, 6] | Hindlimb placing test score, D1 [1, 6] | Hindlimb placing test score, D3 [1, 6] | Hindlimb placing test score, D7 [1, 6] | Hindlimb placing test score, D0 [1, 7] | Hindlimb placing test score, D1 [1, 7] | Hindlimb placing test score, D3 [1, 7] | Hindlimb placing test score, D7 [1, 7] | Body swing test score, D0 [2, 6] | Body swing test score, D1 [2, 6] | Body swing test score, D3 [2, 6] | Body swing test score, D7 [2, 6] | Body swing test score, D0 [2, 7] | Body swing test score, D1 [2, 7] | Body swing test score, D3 [2, 7] | Body swing test score, D7 [2, 7] | also measured |
| --- | --- | --- | --- | --- | --- | --- | --- | --- | --- | --- | --- | --- | --- | --- | --- | --- | --- | --- | --- | --- |
| CC(C)c1c(C(=O)Nc2ccccc2)c(-c2ccccc2)c(-c2ccc(F)cc2)n1CC(O)C(O)C(O)C(O)CO (stereo not drawn) [Compound 782236] | 138.6±35.13 mm^3 | 171.04±33.04 mm^3 | 155.53±29.66 mm^3 | 0 | 4.7 | 4 | 3.3 | 0 | 4.6 | 4 | 3.2 | 50 | 7 | 9 | 23 | 50 | 8 | 27 | 37 | infarction volume (focal cerebral ischemia; IV, schedule a: 2 hrs pre, 3 hrs post, 1/0.5/0.5 mg/kg): 186.8±9.2 mm^3; infarction volume (focal cerebral ischemia; IV, schedule b: 1 hr post, 3 hrs post): 122.8±17.9 mm^3; infarction volume (focal cerebral ischemia; IV, schedule c: 3 hrs post, 6 hrs post): 73.8±18.1 mm^3 |
| CC(C)c1[nH]c(-c2ccc(F)cc2)c(-c2ccccc2)c1C(=O)Nc1ccccc1 [Compound 781430] | 78.89±28.46 mm^3 | 96.51±31.62 mm^3 | 121.39±22.53 mm^3 | 0 | 5.3 | 3.5 | 3 | 0 | 4.1 | 2.8 | 2.1 | 50 | 19 | 22 | 23 | 50 | 31 | 43 | 44 |  |
| CC(C)c1c(C(=O)Nc2ccccc2)c(-c2ccccc2)c(-c2ccc(F)cc2)n1CC[C@@H](O)C[C@@H](O)CC(=O)O [atorvastatin, reference compound] | 80.35±30.41 mm^3 | 121.52±22.58 mm^3 | 127.16±25.77 mm^3 | 0 | 5.9 | 4.9 | 3.5 | 0 | 5.6 | 4.3 | 2.8 | 50 | 19 | 17 | 19 | 50 | 13 | 28 | 41 |  |
